In patent US11834698B2, “Process for determining enzyme activity in a cell by activity-based reporter gene technology (ABRGT)” (INDIAN INSTITUTE OF SCIENCE EDUCATION AND RESEARCH, priority 2018, dated 2023):
Values joined by “and” are separate entries in the source; they are usually repeats but may differ in a detail not shown here. Equal entries are not always repeated.

What was measured:
[1] = biological target: T1, recombinant human caspase-3 His tagged enzyme (rcaspase-3) (Homo sapiens, UniProt P42574); experiment: In-gel fluorescence labelling of purified rcaspase-3 by fABP; assay type: binding
T1 construct: The purified rcaspase-3 was confirmed with the two peaks obtained at 12939 and 16598 Da; His tag; made in house
T1 sequence (P42574 29-175 limits assumed): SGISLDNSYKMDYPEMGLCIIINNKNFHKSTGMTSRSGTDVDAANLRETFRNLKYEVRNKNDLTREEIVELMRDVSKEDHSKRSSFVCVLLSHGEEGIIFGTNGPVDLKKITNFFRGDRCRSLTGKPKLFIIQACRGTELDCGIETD
T1 sequence (P42574 176-277 limits assumed): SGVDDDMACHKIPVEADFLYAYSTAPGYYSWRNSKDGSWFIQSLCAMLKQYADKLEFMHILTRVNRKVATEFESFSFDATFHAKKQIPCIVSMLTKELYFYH
Protocol: FIG. 4 depicts (a) labelling of purified rcaspase-3 (2 μM) by probe 1 at a concentration of 100, 500 and 2000 nM. (b) integrated band intensity values. (c) The specificity of probe 1 (1 μM) to label active enzyme (500 nM); (lane 1: active rcaspase-3 in the presence of probe 1, lane 2: thermally denatured rcaspase-3 in the presence of probe 1.
To establish AbRGT, the specific activation of caspase-3 GFPspark was monitored, in the apoptosis signalling pathway, using fABP, Rhodamine-VAD-fluoromethyl ketone (Rh-VAD-FMK) probe (probe 1) (Micale et al., JACS, 2004) [FIG. 2(a)] in MCF-7 cells. Here, rhodamine is the fluorescent tag, VAD is the peptide recognition sequence for caspases and FMK is the reactive warhead for targeting pan-caspases. Before monitoring the specific caspase-3 activation in the native cellular environment, the active-site labelling of probe 1 to the caspase-3 enzyme in in vitro conditions was first validated. The recombinant human caspase-3 His tagged enzyme (rcaspase-3) was expressed and purified using Ni-NTA column chromatography (Stennicke et al., Methods, 1999). […] The labelled enzyme samples were then separated on a 12% SDS-PAGE gel and were visualized using an in-gel fluorescence scanner. […]

caspase-3 GFPspark [2] = biological target: T2, caspase-3 GFPspark (Homo sapiens, UniProt P42574); experiment: AbRGT FRET imaging / acceptor photobleaching, caspase-3 GFPspark in HEK-293 cells; assay type: cell-based; set-up: host or cells: HEK-293; conditions: HEK-293, STS 1 μM 10 h, probe 1 μM
T2 sequence (P42574 29-175 limits assumed): T1 sequence (P42574 29-175 limits assumed)
T2 sequence (P42574 176-277 limits assumed): T1 sequence (P42574 176-277 limits assumed)

[3] = test system: enhanced green fluorescent protein (EGFP); experiment: EGFP control for random GFP-rhodamine interaction in MCF-7 cells; assay type: cell-based; conditions: MCF-7, EGFP plasmid, STS 1 μM 4 h, labelled with probe 1
Protocol: FIG. 2 depicts (a) a schematic representation of AbRGT in determining the specific activation of caspase-3 GFPspark tagged enzyme by FRET effect utilizing Rh-VAD-FMK (probe 1). (b) The fluorescence signal was collected in GFP, FRET and Rhodamine (Rh) channels. MCF-7 cells transfected with caspase-3 GFPspark treated with (i) 1 μM STS for 4 h or (ii) 1 μg/ml TRAIL for 5 h and then labelled with probe 1. (iii) Un-transfected MCF-7 cells were treated with 1 μM STS for 4 h and then labelled with the probe 1. MCF-7 cells transfected with enhanced green fluorescent protein (EGFP) plasmid treated (iv) with 1 μM STS or (v) without STS for 4 h and then labelled with probe 1, scale bar, 10 a.u. […] Images for GFP and rhodamine fluorescence signals were collected in GFP and FRET channels pre- and post-bleaching of rhodamine signals. (d) Quantification of change in GFP fluorescence intensity after rhodamine photo-bleaching in both unbleached control region and rhodamine bleached region, region of interest (ROI), area under the white square. […]
To rule out that the obtained FRET signal in [FIG. 2b (i)] is not because of random physical interaction between GFPspark and rhodamine dye, MCF-7 cells were transfected with a plasmid encoding for enhanced green fluorescent protein (EGFP). […] The calculated FRET efficiency for (n=15 cells) is 35±1%. […] The calculated FRET efficiency was 35% [FIG. 7(b)]. […]

caspase-3 = biological target: T3, caspase-3 (Homo sapiens, UniProt P42574); conditions: previously shown; cited from earlier work
T3 sequence (P42574 29-175 limits assumed): T1 sequence (P42574 29-175 limits assumed)
T3 sequence (P42574 176-277 limits assumed): T1 sequence (P42574 176-277 limits assumed)

caspase-3 GFPspark [4] = biological target: T2, caspase-3 GFPspark; experiment: AbRGT FRET imaging / acceptor photobleaching, caspase-3 GFPspark in HeLa cells; assay type: cell-based; set-up: host or cells: HeLa; conditions: STS 1 μM 10 h, probe 1 μM

In the case of “Rhodamine-VAD-fluoromethyl ketone [probe 1]”, the “fluorescence signal after thermal denaturation of rcaspase-3 before labelling” value ([1]; probe 1 μM, enzyme 500 nM) is reported as “completely abolished”, the “concentration at which probe effectively labelled rcaspase-3” value ([1]; rcaspase-3 2 μM, probe 100, 500, 2000 nM, SDS-PAGE in-gel fluorescence) is reported as ≤ 100 nM and the “calculated FRET efficiency” value (caspase-3 GFPspark [2]) is reported as 32.5±2% and 33±2%. For the same substance, the “rise in GFP intensity in the ROI” value (caspase-3 GFPspark [2]) was 72 a.u, the “fluorescence signal in FRET channel, EGFP transfected cells” value [3] was “no fluorescence signal was observed” and the “affinity for caspase-3” value (caspase-3) was “moderate affinity”. For the same substance, the “selectivity for caspase-3” value (caspase-3) was “low selectivity”, the “calculated FRET efficiency” value (caspase-3 GFPspark [4]) was 32±2% and the “rise in GFP intensity in the ROI” value (caspase-3 GFPspark [4]; n=15 cells) was 52±5 a.u.
